Experimental findings from US20190359645A1, “2'3'-CYCLIC DINUCLEOTIDES COMPRISING CARBOCYCLIC NUCLEOTIDE” (Institute of Organic Chemistry and Biochemistry ASCR, V.V.I., priority 2018, published 2019) are described below.

For this assay, the target named is WT STING (Homo sapiens, UniProt Q86WV6, H232R). In words: Digitonin assay using 293T wtSTING-FL reporter cells. On the set-up: host or cells: 293T (ATCC CRL-3216), stably transfected; also carries the 4xISRE firefly luciferase reporter. The note with it: 293T wtSTING-FL cells, digitonin buffer 30 min, then 5 h, ISRE firefly luciferase reporter; read-out: Digitonin assay EC50 WT STING. Format: cell-based. From the text:
Two complementary oligonucleotides of the sequence […] […] […] […] (SEQ ID NO: 1) and […] […] (SEQ ID NO:2) containing four interferon-sensitive response elements (ISRE) were synthesized by Sigma Aldrich (Czech Republic, Prague). The oligonucleotides were mixed in equal molar amounts, hybridized, and cleaved by restriction endonucleases HindIII (cat. #. R^0104S, NEB, Ipswich, USA) and BglII (cat. # R^0144S, NEB, Ipswich, USA). Ultimately, they were ligated into plasmid pGL4.27 (cat. # E6651, Promega, Madison, USA) linearized with the same enzymes. As a result, the sequence with four ISRE sites was placed upstream of the minimum promoter of firefly luciferase reporter gene.
293T cells (cat. # CRL-3216, ATCC, Manassas, USA) were seeded a day before transfection at density 125,000 cells per cm^2 onto poly-D-lysine (cat. # P6407, Sigma Aldrich, Czech Republic) coated six well plates in antibiotic free DMEM with high glucose (cat. # D5796, Sigma Aldrich, Czech Republic) supplemented with 10% heat inactivated FBS (cat. # S1520, Biowest, Riverside, USA). On the day of transfection, 2.5 μg of the plasmid pUNO1-hSTING-WT (cat. # punol-hstingwt, InvivoGen, San Diego, USA,) encoding human wild type STING (WT STING) was diluted in 125 μL OptiMEM medium (cat. #31985062, ThermoFisher, Waltham, USA) and mixed with 125 μL of the same medium containing 12.5 μL of Lipofectamine 2000 (cat. #11668019, ThermoFisher, Waltham, USA). After 5 minutes incubation at room temperature (RT), 250 μL of the mixture was added dropwise to the cells in one well. Cells were incubated 36 hours at 37° C. with 5% CO2, and then detached with 0.05% Trypsin and 0.22 g/L EDTA (both cat. # L0941, Biowest, Riverside, USA).
Transfected cells were seeded onto poly-D-lysine coated six well plates at density 50,000 cells per 1 cm^2 in DMEM medium with high glucose containing 10% heat inactivated FBS, […] blasticidin (cat. # ant-bl-05, InvivoGen, San Diego, USA), 0.06 mg/ml Penicillin G and 0.1 mg/ml Streptomycin Sulfate (both cat. #. L0018, Biowest, Riverside, USA). The medium was replenished every 3-4 days until visible colonies of cells resistant to blasticidin were formed.
Blasticidin resistant cells stably expressing WT STING were further transfected with […] plasmid following the same procedure as described above. The transfected cells were selected for the resistance to 300 μg/mL hygromycin (cat. #. 10687010, ThermoFisher, Waltham, USA) in DMEM with high glucose containing 10% heat inactivated FBS, […] blasticidin, 0.06 mg/ml Penicillin G and 0.1 mg/ml Streptomycin Sulfate. Homogeneous culture of stably double transfected cells was prepared by limiting dilution of cells in 96 well plates and wells with cells were selected that originated from a single cell. These cells were expanded, and expression of WT STING was confirmed by western blot using monoclonal mouse anti STING antibodies (cat. #. MAB7169, 1:1000 dilution; […] cat. #. HAF007, 1:2000 dilution, both from R&D Systems, Minneapolis, USA), and by induction of firefly luciferase expression in the presence of 50 μM STING agonist 2′3′ cGAMP (cat. # tlrl-nacga23, InvivoGen, San Diego, USA). Genomic DNA from the transfected cells was amplified with primers pUNO1_Seq_F ([…]) (SEQ ID NO:3) and pUNO1_Seq_R ([…]) (SEQ ID NO:4) that were complementary to pUNO1 plasmid and the presence of WT STING gene in the transfected cells was confirmed by DNA sequencing.
293T wtSTING-FL cells were seeded at density of 250,000 cells per cm^2 onto 96 well poly-D-lysine coated plates in 100 μl DMEM with high glucose supplemented with 10% heat inactivated FBS. […]
Background: In a reporter assay the amount or activity of a reporter protein is the signal.

WT STING, sequence (Q86WV6 whole entry H232R): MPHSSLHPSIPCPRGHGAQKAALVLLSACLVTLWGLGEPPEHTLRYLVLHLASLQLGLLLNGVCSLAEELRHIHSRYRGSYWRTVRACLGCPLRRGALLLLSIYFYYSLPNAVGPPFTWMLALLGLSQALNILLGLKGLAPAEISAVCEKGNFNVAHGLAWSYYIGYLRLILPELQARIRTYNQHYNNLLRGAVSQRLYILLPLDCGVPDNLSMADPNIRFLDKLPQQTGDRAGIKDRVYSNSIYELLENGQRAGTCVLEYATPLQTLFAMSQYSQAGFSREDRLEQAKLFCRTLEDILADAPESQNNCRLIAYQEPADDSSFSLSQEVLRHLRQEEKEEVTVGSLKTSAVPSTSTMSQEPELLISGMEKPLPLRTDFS

In general, EC50 refers to the concentration at which the effect is half-maximal. On to `Nc1nc2c(ncn2[C@@H]2C[C@@H]3COP(=O)(O)OC4C(O)[C@H](n5cnc6c(N)ncnc65)O[C@@H]4COP(=O)(O)OC2C3O)c(=O)[nH]1` (stereo partly drawn) [Compound 102, (6R,8R,15R,17R)-17-(2-amino-6-oxo-6,9-dihydro-1H-purin-9-yl)-8-(6-amino-9H-purin-9-yl)-3,9,12,18-tetrahydroxy-2,4,7,11,13-pentaoxa-3λ^5,12λ^5-diphosphatricyclo[13.2.1.0^6,10]octadecane-3,12-dione], for which the EC50 stood at 100 nM.

Regarding `Nc1ncnc2c1c(I)cn2[C@@H]1O[C@@H]2COP(=O)(O)OC3C(O)[C@@H](COP(=O)(O)OC2C1O)C[C@H]3n1cnc2c(=O)[nH]cnc21` (stereo partly drawn) [Compound 124, (6R,8R,15R,17R)-8-{4-amino-5-iodo-7H-pyrrolo[2,3-d]pyrimidin-7-yl}-3,9,12,18-tetrahydroxy-17-(6-oxo-6,9-dihydro-1H-purin-9-yl)-2,4,7,11,13-pentaoxa-3λ^5,12λ^5-diphosphatricyclo[13.2.1.0^6,10]octadecane-3,12-dione], the EC50 was found to be 400 nM.

With `Nc1ncnc2c1ncn2[C@@H]1O[C@@H]2COP(=O)(S)O[C@@H]3[C@H](F)[C@@H](COP(=O)(S)O[C@H]2[C@H]1F)C[C@H]3n1cnc2c(=O)[nH]cnc21` (single isomer, unassigned) [Compound 128b], the EC50 is 400 nM.

As to `Cc1cn([C@@H]2O[C@@H]3COP(=O)(O)OC4C(O)[C@@H](COP(=O)(O)OC3C2O)C[C@H]4n2cnc3c(=O)[nH]cnc32)c2ncnc(N)c12` (stereo partly drawn) [Compound 123, (6R,8R,15R,17R)-8-{4-amino-5-methyl-7H-pyrrolo[2,3-d]pyrimidin-7-yl}-3,9,12,18-tetrahydroxy-17-(6-oxo-6,9-dihydro-1H-purin-9-yl)-2,4,7,11,13-pentaoxa-3λ^5,12λ^5-diphosphatricyclo[13.2.1.0^6,10]octadecane-3,12-dione], the EC50 is 300 nM.

In the case of `Nc1ncnc2c1ncn2[C@@H]1O[C@@H]2COP(=O)(S)O[C@@H]3[C@H](F)[C@@H](COP(=O)(S)O[C@H]2[C@H]1F)C[C@H]3n1cnc2c(=O)[nH]cnc21` (single isomer, unassigned) [Compound 128d], the EC50 worked out at 20 nM.

Turning to `Nc1nc2c(ncn2[C@@H]2C[C@@H]3COP(=O)(O)OC4C(N)[C@H](n5cnc6c(N)ncnc65)O[C@@H]4COP(=O)(O)OC2C3O)c(=O)[nH]1` (stereo partly drawn) [Compound 109, (6R,8R,15R,17R)-9-amino-17-(2-amino-6-oxo-6,9-dihydro-1H-purin-9-yl)-8-(6-amino-9H-purin-9-yl)-3,12,18-trihydroxy-2,4,7,11,13-pentaoxa-3λ^5,12λ^5-diphosphatricyclo[13.2.1.0^6,10]octadecane-3,12-dione], the EC50 came to 130 nM.

For `Cc1cn([C@@H]2O[C@@H]3COP(=O)(O)OC4C(O)[C@@H](COP(=O)(O)OC3C2O)C[C@H]4n2cnc3c(=O)[nH]c(N)nc32)c2ncnc(N)c12` (stereo partly drawn) [Compound 113, (6R,8R,15R,17R)-8-{4-amino-5-methyl-7H-pyrrolo[2,3-d]pyrimidin-7-yl}-17-(2-amino-6-oxo-6,9-dihydro-1H-purin-9-yl)-3,9,12,18-tetrahydroxy-2,4,7,11,13-pentaoxa-3λ^5,12λ^5-diphosphatricyclo[13.2.1.0^6,10]octadecane-3,12-dione], the EC50 turned out to be 120 nM.

In the case of `Nc1nc2c(ncn2[C@@H]2C[C@@H]3COP(=O)(O)OC4C(F)[C@H](n5cnc6c(N)nc(F)nc65)O[C@@H]4COP(=O)(O)OC2C3O)c(=O)[nH]1` (stereo partly drawn) [Compound 111, (6R,8R,15R,17R)-8-(6-amino-2-fluoro-9H-purin-9-yl)-17-(2-amino-6-oxo-6,9-dihydro-1H-purin-9-yl)-9-fluoro-3,12,18-trihydroxy-2,4,7,11,13-pentaoxa-3λ^5,12λ^5-diphosphatricyclo[13.2.1.0^6,10]octadecane-3,12-dione], the EC50 is 30 nM.

Consider `Nc1ncnc2c1ncn2[C@@H]1O[C@@H]2COP(=O)(O)OC3C(O)[C@@H](COP(=O)(O)OC2C1O)C[C@H]3n1cnc2c(=O)[nH]cnc21` (stereo partly drawn) [Compound 120, (6R,8R,15R,17R)-8-(6-amino-9H-purin-9-yl)-3,9,12,18-tetrahydroxy-17-(6-oxo-6,9-dihydro-1H-purin-9-yl)-2,4,7,11,13-pentaoxa-3λ^5,12λ^5-diphosphatricyclo[13.2.1.0^6,10]octadecane-3,12-dione], for which the 50% effective concentration (EC50) was found to be 30 nM.

Consider `Nc1nc2c(ncn2[C@@H]2C[C@@H]3COP(=O)(O)OC4C(O)[C@H](n5cnc6c(S)ncnc65)O[C@@H]4COP(=O)(O)OC2C3O)c(=O)[nH]1` (stereo partly drawn) [Compound 107, (6R,8R,15R,17R)-17-(2-amino-6-oxo-6,9-dihydro-1H-purin-9-yl)-3,9,12,18-tetrahydroxy-8-(6-sulfanyl-9H-purin-9-yl)-2,4,7,11,13-pentaoxa-3λ^5,12λ^5-diphosphatricyclo[13.2.1.0^6,10]octadecane-3,12-dione], for which the EC50 is 6400 nM.

As to `Nc1nc2c(ncn2[C@@H]2C[C@@H]3COP(=O)(O)OC4C(O)[C@H](n5nnc6c(N)ncnc65)O[C@@H]4COP(=O)(O)OC2C3O)c(=O)[nH]1` (stereo partly drawn) [Compound 116, (6R,8R,15R,17R)-8-{7-amino-3H-[1,2,3]triazolo[4,5-d]pyrimidin-3-yl}-17-(2-amino-6-oxo-6,9-dihydro-1H-purin-9-yl)-3,9,12,18-tetrahydroxy-2,4,7,11,13-pentaoxa-3λ^5,12λ^5-diphosphatricyclo[13.2.1.0^6,10]octadecane-3,12-dione], the concentration for a half-maximal effect (EC50) worked out at 1700 nM.

As to `Nc1ncnc2c1ncn2[C@@H]1O[C@@H]2COP(=O)(O)O[C@@H]3[C@@H](F)[C@@H](COP(=O)(O)O[C@H]2[C@H]1O)C[C@H]3n1cnc2c(=O)[nH]cnc21` [Compound 126, (1S,6R,8R,9R,10S,15R,17R,18S)-8-(6-amino-9H-purin-9-yl)-18-fluoro-3,9,12-trihydroxy-17-(6-oxo-6,9-dihydro-1H-purin-9-yl)-2,4,7,11,13-pentaoxa-3λ^5,12λ^5-diphosphatricyclo[13.2.1.0^6,10]octadecane-3,12-dione], the EC50 turned out to be 50 nM.

As to `Nc1nc(N)c2ncn([C@@H]3O[C@@H]4COP(=O)(O)OC5C(O)[C@@H](COP(=O)(O)OC4C3F)C[C@H]5n3cnc4c(=O)[nH]c(N)nc43)c2n1` (stereo partly drawn) [Compound 117, (6R,8R,15R,17R)-17-(2-amino-6-oxo-6,9-dihydro-1H-purin-9-yl)-8-(2,6-diamino-9H-purin-9-yl)-9-fluoro-3,12,18-trihydroxy-2,4,7,11,13-pentaoxa-3λ^5,12λ^5-diphosphatricyclo[13.2.1.0^6,10]octadecane-3,12-dione], the EC50 is 50 nM.

Consider `CNc1ncnc2c1ncn2[C@@H]1O[C@@H]2COP(=O)(O)OC3C(O)[C@@H](COP(=O)(O)OC2C1O)C[C@H]3n1cnc2c(=O)[nH]c(N)nc21` (stereo partly drawn) [Compound 108, (6R,8R,15R,17R)-17-(2-amino-6-oxo-6,9-dihydro-1H-purin-9-yl)-3,9,12,18-tetrahydroxy-8-[6-(methylamino)-9H-purin-9-yl]-2,4,7,11,13-pentaoxa-3λ^5,12λ^5-diphosphatricyclo[13.2.1.0^6,10]octadecane-3,12-dione], for which the EC50 is 170 nM.
